Test results reported in patent US6749864B2, “Stabilized pharmaceutical composition” (Takeda Chemical Industries, Ltd., priority 1986, dated 2004).

Assays:
[1] = Storage of granules of different benzimidazole compounds with heavy magnesium carbonate or lactose, changes in appearance (Experimental Example 2); format: physicochemical; set-up: key to Changes in appearance after 1 week at 50° C. and 75% RH: −: No changes; ++: Severely; conditions: for Changes in appearance after 1 week at 50° C. and 75% RH: granules as in Example 5; for stability of the pharmaceutical compositions of the invention: granules with heavy magnesium carbonate, 50° C. and 75% RH, 1 week
Excerpt: Granules were produced in the same manner as in Example 5 except that the compound (A), the compound (C), the compound (D), omeprazole or timoprazole was used instead of the compound (B). […] As a control to each composition, granules were also produced in the same manner except that lactose was used instead of heavy magnesium carbonate and stored under the same conditions.

[2] = Control: lactose instead of heavy magnesium carbonate
[3] = Invention: additive heavy magnesium carbonate

Row | SMILES | melting point | Changes in appearance after 1 week at 50° C. and 75% RH [1, 2] | Changes in appearance after 1 week at 50° C. and 75% RH [1, 3] | stability of the pharmaceutical compositions of the invention [1]
1 | Cc1c(OCC(F)(F)C(F)(F)F)ccnc1C[S+]([O-])c1nc2ccccc2[nH]1 (stereo not shown) [Compound (A), 2-[[3-methyl-4-(2,2,3,3,3-pentafluoropropoxy)-2-pyridyl]methyl-sulfinyl]benzimidazole] | 161 to 163 °C (dec.) | ++ | − | stable
2 | COc1ccc2nc([S+]([O-])Cc3ncc(C)c(OC)c3C)[nH]c2c1 (stereo not shown) [Omeprazole, 5-Methoxy-2-[(4-methoxy-3,5-dimethyl-2-pyridyl)methylsulfinyl]benzimidazole] |  | ++ | − | stable
3 | [O-][S+](Cc1ccccn1)c1nc2ccccc2[nH]1 (stereo not shown) [Timoprazole, 2-[(2-Pyridyl)methylsulfinyl]benzimidazole] |  | ++ | − | stable
